The source of these data is ChEMBL document CHEMBL1159147, “4-(2-PYRTOYL)-5-phenylthiazoles as novel non-bicyclic reversible inhibitors of the gastric H+/K+-atpase” (Bioorg Med Chem Lett, 1995).

The subject of one series is Rattus norvegicus. The series is described as follows: Compound was tested in vivo for its ability to inhibit pentagastrin-stimulated gastric acid secretion in the anesthetized lumen perfused rat at 10 umol/kg iv. The format is functional. The note with it: Stomach.
The target of series [1] is T1, Potassium-transporting ATPase alpha chain 1 (Sus scrofa, UniProt P19156). The experiment in a line: Ability to inhibit H+/K+ stimulated ATPase activity in lympholised gastric vesicles. The format is tissue-based, Stomach.
Series [2] can be described thus: Acid dissociation constant was reported. In kind it is ADME.
Series [3] addresses T1, Potassium-transporting ATPase alpha chain 1. The experiment in a line: Compound was evaluated for its ability to inhibit K+-stimulated ATPase activity.
Series [4] in a line: Ability to inhibit Na(+)/K(+)-stimulated ATPase activity in hog kidney. Also noted: species or system Sus scrofa.

T1 sequence (P19156 whole entry): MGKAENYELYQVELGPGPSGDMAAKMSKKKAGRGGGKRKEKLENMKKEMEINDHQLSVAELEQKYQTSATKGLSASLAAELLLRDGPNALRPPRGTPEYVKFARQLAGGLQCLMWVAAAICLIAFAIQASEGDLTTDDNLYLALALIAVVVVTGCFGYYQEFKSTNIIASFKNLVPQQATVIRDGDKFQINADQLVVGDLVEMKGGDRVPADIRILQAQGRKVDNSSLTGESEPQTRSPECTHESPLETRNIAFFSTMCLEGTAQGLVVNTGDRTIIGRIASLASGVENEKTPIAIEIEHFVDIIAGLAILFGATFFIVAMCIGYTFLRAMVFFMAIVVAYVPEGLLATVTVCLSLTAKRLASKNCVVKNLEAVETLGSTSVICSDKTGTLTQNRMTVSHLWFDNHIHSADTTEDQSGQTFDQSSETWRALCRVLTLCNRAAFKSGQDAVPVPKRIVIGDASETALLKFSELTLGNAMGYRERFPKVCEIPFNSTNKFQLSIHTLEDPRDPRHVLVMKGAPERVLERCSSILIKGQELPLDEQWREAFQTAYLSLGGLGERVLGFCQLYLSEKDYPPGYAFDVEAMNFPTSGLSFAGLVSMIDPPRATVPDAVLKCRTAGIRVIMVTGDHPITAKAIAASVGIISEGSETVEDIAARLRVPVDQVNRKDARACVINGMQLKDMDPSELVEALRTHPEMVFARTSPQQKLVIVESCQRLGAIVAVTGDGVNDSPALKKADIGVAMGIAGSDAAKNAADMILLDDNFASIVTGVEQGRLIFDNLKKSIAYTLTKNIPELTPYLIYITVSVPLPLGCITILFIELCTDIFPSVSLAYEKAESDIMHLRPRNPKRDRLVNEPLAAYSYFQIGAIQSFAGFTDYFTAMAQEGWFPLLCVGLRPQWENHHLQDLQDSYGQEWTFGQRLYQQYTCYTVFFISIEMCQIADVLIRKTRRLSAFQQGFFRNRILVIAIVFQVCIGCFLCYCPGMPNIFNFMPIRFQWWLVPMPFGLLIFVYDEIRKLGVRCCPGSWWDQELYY

As to `CCCc1nc(-c2cccc(NC)n2)c(-c2ccccc2C)s1`, the inhibition in vivo at 10 µmol/kg with Rattus norvegicus stood at 42%. This compound gave an IC50 in series [1] of 12.5 µM.

On to `CCCc1nc(-c2ccccn2)c(-c2ccccc2C)s1`, for which the inhibition in vivo at 10 µmol/kg with Rattus norvegicus was 26%. Also, the IC50 in series [1] is 8.2 µM. In series [2], this compound showed a pKa of 4.2.

In the series with Rattus norvegicus, `Cc1ccccc1-c1sc(Cc2ccccc2)nc1-c1ccccn1` yielded an inhibition in vivo at 10 µmol/kg of 29%. In addition, the midpoint of inhibition in series [1], the IC50, lay at 9.6 µM.

Regarding `CCCc1nc(-c2cccc(N)n2)c(-c2ccccc2C)s1`, the inhibition in vivo at 10 µmol/kg with Rattus norvegicus was determined as 48%. The same compound returned an IC50 in series [1] of 2.9 µM.

In the series with Rattus norvegicus, `CCCc1nc(-c2cc(N)ccn2)c(-c2ccccc2C)s1` came in with an inhibition in vivo at 10 µmol/kg of 36%. In series [3], this compound registered a Ki of 0.838 µM. Also, the IC50 in series [4] was found to be 44 µM; in series [1], 2.2 µM. In addition, in series [2], the pKa is 8.

For `Cc1ccccc1N1CCc2cnc3c(C)cccc3c21`, in the series on Rattus norvegicus, the inhibition in vivo at 10 µmol/kg amounted to 47%. The same compound registered an IC50 in series [1] of 0.98 µM.

`CCCc1nc(-c2ccccn2)c(-c2ccccc2)s1` returned an inhibition in vivo at 10 µmol/kg with Rattus norvegicus of 21%. The compound further registered an IC50 in series [1] of 42.3 µM.

In the case of `Cc1ccccc1-c1nc(-c2ccccn2)c(-c2ccccc2C)s1`, the IC50 in series [1] was found to be 4.9 µM.

`CCOC(=O)c1cnc2c(OC)cccc2c1Nc1ccccc1C` had a pKa in series [2] of 6.7.

In general, inhibition in vivo refers to the relative decrease from the control value, in per cent. High values mean a strong effect, low ones a weak effect. The term IC50 denotes the concentration that gives 50% inhibition. Low values mean greater potency in that assay, high ones weaker potency in that assay. As usually defined, the pKa is the negative logarithm of the acid dissociation constant. A lower pKa goes with a group that gives up its proton readily. Usually Ki stands for a measure of affinity in units of concentration, obtained from inhibition or displacement. Read a low Ki as higher affinity.
